Test results from ChEMBL document CHEMBL1914304 (J Med Chem, 2011).

Experiments:
[1] = Selectivity ratio of EC50 for human HepG2 cells to EC50 for Plasmodium falciparum
HEK293 = assay: Cytotoxicity against human HEK293 cells after 72 hrs by luminescence assay; assay type: cell-based; details: hek293, 72 h
Raji = assay: Cytotoxicity against human Raji cells after 72 hrs by luminescence assay; assay type: cell-based
HepG2 = assay: Cytotoxicity against human HepG2 cells after 72 hrs by luminescence assay; assay type: cell-based; details: hepg2, 72 h
BJ = assay: Cytotoxicity against human BJ cells after 72 hrs by luminescence assay; assay type: cell-based

SMILES | selectivity ratio [1] | Activity (HEK293) | Activity (Raji) | Activity (HepG2) | Activity (BJ)
Cl.O=C(CCc1ccc(F)cc1)c1ccccc1OCC(O)CN1CCN(c2ccc(C(F)(F)F)cc2)CC1 (racemic) | > 10 | Non-toxic | Non-toxic | Non-toxic | Non-toxic
Cl.O=C(CCc1ccc(F)cc1)c1ccccc1OCC(O)CN1CCN(C(=O)c2ccccc2)CC1 (racemic) | > 10 | Non-toxic | Non-toxic | Non-toxic | Non-toxic
CN1CCN(CC(O)COc2ccccc2C(=O)CCc2ccc(F)cc2)CC1.Cl (racemic) | > 10 | Non-toxic | Non-toxic | Non-toxic | Non-toxic
CCN1CCN(CC(O)COc2ccccc2C(=O)CCc2ccc(F)cc2)CC1.Cl (racemic) | > 10 | Non-toxic | Non-toxic | Non-toxic | Non-toxic
Cl.O=C(CCc1ccc(F)cc1)c1ccccc1OCC(O)CN1CCOCC1 (racemic) | > 10 | Non-toxic | Non-toxic | Non-toxic | Non-toxic
Cl.O=C(CCc1ccccc1)c1cc(F)ccc1OCC(O)CN1CCC(Cc2ccccc2)CC1 (racemic) | > 10 | Non-toxic | Non-toxic | Non-toxic | Non-toxic
Cl.O=C(CCc1ccccc1)c1cc(F)ccc1OCC(O)CN1CCC(O)(Cc2ccccc2)CC1 (racemic) | > 10 | Non-toxic | Non-toxic | Non-toxic | Non-toxic
Cl.O=C(CCc1ccccc1)c1cc(F)ccc1OCC(O)CN1CCNCC1 (racemic) | > 10 | Non-toxic | Non-toxic | Non-toxic | Non-toxic
Cl.O=C(CCc1ccccc1)c1cc(F)ccc1OCC(O)CN1CCC(c2ccccc2)CC1 (racemic) | > 10 | Non-toxic | Non-toxic | Non-toxic | Non-toxic
Cl.O=C(CCc1ccccc1)c1cc(F)ccc1OCC(O)CN1CCN(c2ccc(Cl)cc2)CC1 (racemic) | > 10 | Non-toxic | Non-toxic | Non-toxic | Non-toxic
Cl.O=C(CCc1ccccc1)c1cc(F)ccc1OCC(O)CN1CCN(c2ccccc2)CC1 (racemic) | > 10 | Non-toxic | Non-toxic | Non-toxic | Non-toxic
Cl.O=C(CCc1ccccc1)c1cc(F)ccc1OCC(O)CN1CCN(Cc2ccccc2)CC1 (racemic) | > 10 | Non-toxic | Non-toxic | Non-toxic | Non-toxic
Cc1ccccc1N1CCN(CC(O)COc2ccc(F)cc2C(=O)CCc2ccccc2)CC1.Cl (racemic) | > 10 | Non-toxic | Non-toxic | Non-toxic | Non-toxic
Cc1cccc(N2CCN(CC(O)COc3ccc(F)cc3C(=O)CCc3ccccc3)CC2)c1.Cl (racemic) | > 10 | Non-toxic | Non-toxic | Non-toxic | Non-toxic
Cc1ccc(N2CCN(CC(O)COc3ccc(F)cc3C(=O)CCc3ccccc3)CC2)cc1.Cl (racemic) | > 10 | Non-toxic | Non-toxic | Non-toxic | Non-toxic
COc1ccccc1N1CCN(CC(O)COc2ccc(F)cc2C(=O)CCc2ccccc2)CC1.Cl (racemic) | > 10 | Non-toxic | Non-toxic | Non-toxic | Non-toxic
COc1cccc(N2CCN(CC(O)COc3ccc(F)cc3C(=O)CCc3ccccc3)CC2)c1.Cl (racemic) | > 10 | Non-toxic | Non-toxic | Non-toxic | Non-toxic
COc1ccc(N2CCN(CC(O)COc3ccc(F)cc3C(=O)CCc3ccccc3)CC2)cc1.Cl (racemic) | > 10 | Non-toxic | Non-toxic | Non-toxic | Non-toxic
Cl.O=C(CCc1ccccc1)c1cc(F)ccc1OCC(O)CN1CCN(c2ccccc2Cl)CC1 (racemic) | > 10 | Non-toxic | Non-toxic | Non-toxic | Non-toxic

SMILES | selectivity ratio [1] | Activity (HEK293) | Activity (Raji) | Activity (HepG2) | Activity (BJ)
Cl.O=C(CCc1ccccc1)c1cc(F)ccc1OCC(O)CN1CCN(c2ccc(Cl)c(Cl)c2)CC1 (racemic) | > 10 | Non-toxic | Non-toxic | Non-toxic | Non-toxic
Cl.O=C(CCc1ccccc1)c1cc(F)ccc1OCC(O)CN1CCN(c2ccccc2F)CC1 (racemic) | > 10 | Non-toxic | Non-toxic | Non-toxic | Non-toxic
Cl.O=C(CCc1ccccc1)c1cc(F)ccc1OCC(O)CN1CCN(c2ccc(F)cc2)CC1 (racemic) | > 10 | Non-toxic | Non-toxic | Non-toxic | Non-toxic
Cl.O=C(CCc1ccccc1)c1cc(F)ccc1OCC(O)CN1CCN(c2ccc([N+](=O)[O-])cc2)CC1 (racemic) | > 10 | Non-toxic | Non-toxic | Non-toxic | Non-toxic
Cl.Nc1ccc(N2CCN(CC(O)COc3ccc(F)cc3C(=O)CCc3ccccc3)CC2)cc1 (racemic) | > 10 | Non-toxic | Non-toxic | Non-toxic | Non-toxic
Cl.O=C(CCc1ccccc1)c1cc(F)ccc1OCC(O)CN1CCN(c2ccc(O)cc2)CC1 (racemic) | > 10 | Non-toxic | Non-toxic | Non-toxic | Non-toxic
Cl.O=C(CCc1ccccc1)c1cc(F)ccc1OCC(O)CN1CCN(c2ccc(C(F)(F)F)cc2)CC1 (racemic) | > 10 | Non-toxic | Non-toxic | Non-toxic | Non-toxic
Cl.O=C(CCc1ccccc1)c1cc(F)ccc1OCC(O)CN1CCN(C(=O)c2ccccc2)CC1 (racemic) | > 10 | Non-toxic | Non-toxic | Non-toxic | Non-toxic
CN1CCN(CC(O)COc2ccc(F)cc2C(=O)CCc2ccccc2)CC1.Cl (racemic) | > 10 | Non-toxic | Non-toxic | Non-toxic | Non-toxic
CCN1CCN(CC(O)COc2ccc(F)cc2C(=O)CCc2ccccc2)CC1.Cl (racemic) | > 10 | Non-toxic | Non-toxic | Non-toxic | Non-toxic
Cl.O=C(CCc1ccc(F)cc1)c1cc(F)ccc1OCC(O)CN1CCCCC1 (racemic) | > 10 | Non-toxic | Non-toxic | Non-toxic | Non-toxic
Cl.O=C(CCc1ccc(F)cc1)c1cc(F)ccc1OCC(O)CN1CCC(c2ccccc2)CC1 (racemic) | > 10 | Non-toxic | Non-toxic | Non-toxic | Non-toxic
Cl.O=C(CCc1ccc(F)cc1)c1cc(F)ccc1OCC(O)CN1CCC(Cc2ccccc2)CC1 (racemic) | > 10 | Non-toxic | Non-toxic | Non-toxic | Non-toxic
Cl.O=C(CCc1ccc(F)cc1)c1cc(F)ccc1OCC(O)CN1CCC(c2ccc(Cl)cc2)CC1 (racemic) | > 10 | Non-toxic | Non-toxic | Non-toxic | Non-toxic
Cl.O=C(CCc1ccc(F)cc1)c1cc(F)ccc1OCC(O)CN1CCC(O)CC1 (racemic) | > 10 | Non-toxic | Non-toxic | Non-toxic | Non-toxic
Cl.O=C(CCc1ccc(F)cc1)c1cc(F)ccc1OCC(O)CN1CCC(O)(Cc2ccccc2)CC1 (racemic) | > 10 | Non-toxic | Non-toxic | Non-toxic | Non-toxic
Cl.O=C(CCc1ccc(F)cc1)c1cc(F)ccc1OCC(O)CN1CCN(c2ccccc2)CC1 (racemic) | > 10 | Non-toxic | Non-toxic | Non-toxic | Non-toxic
Cl.O=C(CCc1ccc(F)cc1)c1cc(F)ccc1OCC(O)CN1CCN(Cc2ccccc2)CC1 (racemic) | > 10 | Non-toxic | Non-toxic | Non-toxic | Non-toxic
Cl.O=C(CCc1ccccc1)c1cc(F)ccc1OCC(O)CN1CC[N+]([O-])(c2ccc(Cl)cc2)CC1 (racemic) | > 10 | Non-toxic | Non-toxic | Non-toxic | Non-toxic
